Test results as given in US9777045B2, “Immunogenic compositions and methods” (Longhorn Vaccines and Diagnostics, LLC, priority 2007, dated 2017).
Values joined by “and” are separate entries in the source; they are usually repeats but may differ in a detail not shown here. Equal entries are not always repeated. Where two headings read alike, the source gives them in different places.

Legend:
[1] = test system: peptide corresponding to the peptide-BSA conjugate used for injection; experiment: ELISA for anti-peptide antibodies (individual mouse sera 1:100); assay type: in vivo, mice; settings: for Average Absorbance Values of sera for tested peptides, Day 14 / Average Absorbance Values of sera for tested peptides, Day 29 / Average Absorbance Values of sera for tested peptides, Day 42 / Average Absorbance Values of sera for tested peptides, Pre: group average; for Average Absorbance Values of sera for tested peptides, Day 14 / Average Absorbance Values of sera for tested peptides, Day 29 / Average Absorbance Values of sera for tested peptides, Day 42 / Average Absorbance Values of sera for tested peptides, Pre / Individual absorbancy values of sera for tested peptides, Day 14 / Individual absorbancy values of sera for tested peptides, Day 29 / Individual absorbancy values of sera for tested peptides, Day 42: mice; for Average Absorbance Values of sera for tested peptides, Pre / Individual absorbancy values of sera for tested peptides, Pre: pre-bleed; for Individual absorbancy values of sera for tested peptides, Pre: mice injected with peptide-BSA conjugate, absorbance 450 nm; for Individual absorbancy values of sera for tested peptides, Pre / Individual absorbancy values of sera for tested peptides, Day 14 / Individual absorbancy values of sera for tested peptides, Day 29 / Individual absorbancy values of sera for tested peptides, Day 42: sera 1:100
Experimental: Individual sera were tested at a final dilution of 1:100 (in PBS-T) on Nunc Maxisorp® plates coated with the peptide corresponding to the peptide-BSA conjugate used for injection, at a concentration of 1 μg/ml in PBS (100 μl/well). One hundred microliters of diluted sera were reacted on the coated plate for 30 to 60 min at room temperature, and unbound material was removed by washing three times with PBS-T. Anti-peptide antibodies were detected with peroxidase-labeled goat anti-mouse IgG (γ-specific), diluted 1:10000 in PBS-T (100 μl/well; Jackson ImmunoResearch Laboratories, Inc., West Grove, Pa., USA). Following 30-min incubation, the wells were washed five times with PBS-T to removed unbound material and 100 μl of substrate (TMB; Kirkegaard & Perry Laboratories, Inc., Gaithersburg, Md., USA) was added to each well. The reaction was allowed to proceed for 15 min in the dark and stopped by addition of 100 μl of TMB Stop Solution per well (Kirkegaard & Perry). Absorbance was determined at 450 nm.

[2] = test system: Influenza H1N1, H3N2, and H5N1; settings: in vivo
[3] = test system: live Wuhan (Influenza A/Wuhan/359/95, H3N2); experiment: ELISA for anti-Wuhan antibodies (mouse sera 1:100); assay type: in vivo, mice; settings: for Absorbance values for individual sera tested on influenzavirus strain Wuhan, Pre: pre-bleed; for Absorbance values for individual sera tested on influenzavirus strain Wuhan, Pre / Anti-Wuhan Absorbance Day 42 (individual mice) / Anti-Wuhan Absorbance Pre-Bleed (individual mice) / Anti-Wuhan Absorbance Day 42 (group average) / Anti-Wuhan Absorbance Pre-Bleed (group average): sera 1:100; for Anti-Wuhan Absorbance Day 42 (group average) / Anti-Wuhan Absorbance Pre-Bleed (group average): averaged results
[4] = test system: IL-4 induction in splenocytes; assay type: cell-based; settings: mice immunized with peptide-BSA conjugates; 72 h in vitro treatment
[5] = test system: IFN-γ induction in splenocytes; assay type: cell-based; settings: mice immunized with peptide-BSA conjugates, 72 h in vitro treatment
Influenza H3N2 (Wuhan) = test system: Influenza H3N2 (Wuhan); design: species or system cotton rats (Sigmodon hispidus); settings: rat, in vivo
live H3N2 virus = assay type: in vivo, cotton rats (Sigmodon hispidus); settings: rat, in vivo
live H1N1 virus = test system: live H1N1 virus; design: species or system cotton rats (Sigmodon hispidus); settings: rat, in vivo

Substance | Average Absorbance Values of sera for tested peptides, Day 14 ([1]; 5 μg per injection) | Average Absorbance Values of sera for tested peptides, Day 29 ([1]; 5 μg per injection) | Average Absorbance Values of sera for tested peptides, Day 42 ([1]; 5 μg per injection) | Average Absorbance Values of sera for tested peptides, Pre ([1]; 5 μg per injection) | Average Absorbance Values of sera for tested peptides, Day 14 ([1]; 20 μg per injection) | Average Absorbance Values of sera for tested peptides, Day 29 ([1]; 20 μg per injection) | Average Absorbance Values of sera for tested peptides, Day 42 ([1]; 20 μg per injection) | Average Absorbance Values of sera for tested peptides, Pre ([1]; 20 μg per injection) | Individual absorbancy values of sera for tested peptides, Pre ([1]; 5 μg per injection) | Individual absorbancy values of sera for tested peptides, Pre ([1]; 20 μg per injection) | Individual absorbancy values of sera for tested peptides, Day 14 ([1]; 5 μg per injection) | Individual absorbancy values of sera for tested peptides, Day 29 ([1]; 5 μg per injection) | Individual absorbancy values of sera for tested peptides, Day 42 ([1]; 5 μg per injection) | Individual absorbancy values of sera for tested peptides, Day 14 ([1]; 20 μg per injection) | Individual absorbancy values of sera for tested peptides, Day 29 ([1]; 20 μg per injection) | Individual absorbancy values of sera for tested peptides, Day 42 ([1]; 20 μg per injection) | Absorbance values for individual sera tested on influenzavirus strain Wuhan, Pre ([3]; mice, 5 μg per injection) | Absorbance values for individual sera tested on influenzavirus strain Wuhan, Pre ([3]; mice, 20 μg per injection) | Anti-Wuhan Absorbance Day 42 (individual mice) ([3]; dose per inject 5 μg) | Anti-Wuhan Absorbance Pre-Bleed (individual mice) ([3]; dose per inject 5 μg) | other results
GNLFIAPGNLFIAPQYIKANSKFIGITEGNLFIAP [Peptide 5907] | 0.077 | 0.107 | 0.134 | 0.078 | 0.080 | 0.097 | 0.165 | 0.083 | 0.080 and 0.073 and 0.084 and 0.075 | 0.065 and 0.077 and 0.082 and 0.108 | 0.096 and 0.061 and 0.079 and 0.073 | 0.160 and 0.098 and 0.099 and 0.071 | 0.165 and 0.099 and 0.139 | 0.069 and 0.072 and 0.088 and 0.090 | 0.073 and 0.080 and 0.141 and 0.093 | 0.114 and 0.161 and 0.230 and 0.156 | 0.084 and 0.062 and 0.068 and 0.063 | 0.097 and 0.102 and 0.071 and 0.091 | 0.212 and 0.082 and 0.250 and 0.039 | 0.084 and 0.062 and 0.068 and 0.063 | immune response against Influenza H1N1, H3N2, and H5N1 [2]: raises an immune response; Anti-Wuhan Absorbance Day 42 (individual mice) ([3]; dose per inject 20 μg): 0.394 and 0.174 and 0.119 and 0.224; Anti-Wuhan Absorbance Pre-Bleed (individual mice) ([3]; dose per inject 20 μg): 0.087 and 0.102 and 0.071 and 0.091; Anti-Wuhan Absorbance Day 42 (group average) ([3]; dose per injection 5 μg): 0.146; Anti-Wuhan Absorbance Pre-Bleed (group average) ([3]; dose per injection 5 μg): 0.069; Anti-Wuhan Absorbance Day 42 (group average) ([3]; dose per injection 20 μg): 0.227; Anti-Wuhan Absorbance Pre-Bleed (group average) ([3]; dose per injection 20 μg): 0.088; IL-4 response of spleen cell supernatants (in words) [4]: below the result of the untreated control
GNLFIAP [Peptide 5910] | 0.113 | 0.140 | 0.318 | 0.154 | 0.102 | 0.202 | 0.237 | 0.083 | 0.100 and 0.110 and 0.097 and 0.308 | 0.081 and 0.083 (2×) and 0.087 | 0.089 and 0.090 and 0.086 and 0.186 | 0.099 and 0.226 and 0.085 and 0.149 | 0.123 and 0.306 and 0.680 and 0.162 | 0.104 and 0.081 and 0.078 and 0.144 | 0.296 and 0.077 and 0.133 and 0.302 | 0.279 and 0.164 and 0.175 and 0.333 | 0.076 and 0.092 and 0.068 and 0.109 | 0.069 and 0.070 and 0.071 and 0.092 | 0.449 and 0.341 and 0.288 and 0.088 | 0.076 and 0.092 and 0.068 and 0.109 | antibody responses that bound to native influenza (whole H3 virus), day 42 vs before ([3]; mice, conjugates at 5-μg and 20-μg doses): good antibody responses; Anti-Wuhan Absorbance Day 42 (individual mice) ([3]; dose per inject 20 μg): 0.546 and 0.096 and 0.271 and 0.385; Anti-Wuhan Absorbance Pre-Bleed (individual mice) ([3]; dose per inject 20 μg): 0.069 and 0.070 and 0.071 and 0.092; Anti-Wuhan Absorbance Day 42 (group average) ([3]; dose per injection 5 μg): 0.291; Anti-Wuhan Absorbance Pre-Bleed (group average) ([3]; dose per injection 5 μg): 0.086; Anti-Wuhan Absorbance Day 42 (group average) ([3]; dose per injection 20 μg): 0.324; Anti-Wuhan Absorbance Pre-Bleed (group average) ([3]; dose per injection 20 μg): 0.075; IFN-γ response of spleen cell supernatants (in words) [5]: strongest IFN-γ response; IFN-γ response of spleen cell supernatants (in words) ([5]; listed as GNLFIAP): good IFN-γ response
SLLTEVETPIRNEWGLLTEVETPIRQYIKANSKFIGITE [PF2001] |  |  |  |  |  |  |  |  |  |  |  |  |  |  |  |  |  |  |  |  | viral inhibitory antibody to H3N2 after peptide boost (Influenza H3N2 (Wuhan)): boosted viral inhibitory antibody to H3N2; IgG titers to live H3N2 virus (ELISA) (live H3N2 virus): superior to two injections of M2e; IgG to live H3N2 virus after peptide boost of primed animals (ELISA) (live H3N2 virus): equivalent titer to group 6; IgG antibody against live H1N1 virus (ELISA) (live H1N1 virus): IgG antibody rises were also induced
